Assays:
[1] = target: T1, SIRT1 (Homo sapiens, UniProt Q96EB6); test: SIRT1 enzyme activity assay (Direct Fluorescent Screening Assay kit); assay type: biochemical; conditions: read-out: SIRT1 maximal activation
T1 construct: purchased Cayman chemical
T1 sequence (Q96EB6 1-747): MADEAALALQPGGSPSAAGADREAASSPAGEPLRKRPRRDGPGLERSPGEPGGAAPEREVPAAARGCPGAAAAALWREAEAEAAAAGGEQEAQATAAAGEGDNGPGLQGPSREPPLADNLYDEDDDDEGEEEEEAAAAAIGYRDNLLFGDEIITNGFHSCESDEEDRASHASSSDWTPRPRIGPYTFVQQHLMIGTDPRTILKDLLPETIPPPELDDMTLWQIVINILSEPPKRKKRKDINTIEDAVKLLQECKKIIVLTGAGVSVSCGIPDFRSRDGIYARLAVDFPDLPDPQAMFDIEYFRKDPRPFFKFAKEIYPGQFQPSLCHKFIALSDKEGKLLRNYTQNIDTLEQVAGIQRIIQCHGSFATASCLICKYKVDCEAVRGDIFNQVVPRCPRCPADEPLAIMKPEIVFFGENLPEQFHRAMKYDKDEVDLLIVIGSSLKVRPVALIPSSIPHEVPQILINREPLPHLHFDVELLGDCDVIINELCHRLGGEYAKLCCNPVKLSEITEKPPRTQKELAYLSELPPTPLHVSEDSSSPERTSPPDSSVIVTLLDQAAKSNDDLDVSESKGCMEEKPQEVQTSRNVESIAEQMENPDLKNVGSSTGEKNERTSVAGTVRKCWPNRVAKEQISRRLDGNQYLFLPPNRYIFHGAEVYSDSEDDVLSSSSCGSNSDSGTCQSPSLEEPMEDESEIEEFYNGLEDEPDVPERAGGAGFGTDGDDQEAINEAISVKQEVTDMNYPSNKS
Protocol: SIRT1 enzyme activity was assayed with the SIRT1 Direct Fluorescent Screening Assay kit (Cayman chemical, MI, USA), according to the manufacturer’s instructions. Fluorescence was measured on an EnVision Multilabel Plate Reader (PerkinElmer, CA, USA). DMSO was used as a negative control and also as a solvent for resveratrol and ZBH.
Figure 4 Activation of SIRT1 by ZBH. SIRT1 enzyme activity was measured after treatment with ZBH and Resveratrol, and the fluorescence was tested on EnVision Multilabel Plate Reader. Values are mean±SE, n = 3.

[2] = system: 3T3-L1 adipocytes; test: Adiponectin expression in 3T3-L1 adipocytes; assay type: cell-based; conditions: 10–100 µM, dose dependent, data not shown
[3] = system: hyperlipidemic hamsters; test: High fat diet induced hyperlipidemic hamster, 5-week oral treatment; assay type: in vivo, golden Syrian hamsters (Mesocricetus auratus)
Text: Male golden Syrian hamsters (Mesocricetus auratus) weighing 90–110 g were purchased from Vital River Laboratory Animal Technology Co. Ltd. (Beijing, China). Animals were maintained on a 12-h day/night schedule with ad libitum access to nutrition and water. […] Blood samples were taken after overnight fasting from the suborbital sinus under light sevoflurane anesthesia on the fifth and tenth day for measurement of serum total cholesterol (TC) and triglyceride (TG). […] The dose selection of ZBH was based on previous pilot study. Hamsters with standard rodent diet were used as normal control. Compounds were dissolved in DMSO and suspended in 0.5% methylcellulose and administered by gavage once a day for 5 weeks. Individual body weight and cage food consumption were measured every two days. Dynamic serum lipid monitoring was performed weekly and blood samples were taken from the retro-orbital venous plexus under light ether anesthesia using a glass capillary tube after overnight fasting. Then the animal were sacrificed by cervical decapitation under anesthesia, and the liver, heart, epididymal white adipose tissue (eWAT) and gastrocnemius muscle were excised, rapidly frozen in liquid nitrogen and maintained at −80°C until analysis. Serum TC, TG and free fatty acids (FFA) were measured by using commercial kit (Nanjing Jiancheng, Bioengineering Institute, Nanjing, China) as previously described. Serum glucose, low-density lipoprotein cholesterol (LDLc) and high-density lipoprotein cholesterol (HDLc) were measured with the Hitachi 917 automated biochemistry analyzer (Roche diagnostics, Indianapolis, USA). Serum insulin was quantified by ELISA using a hamster insulin assay kit (Crystal Chem Inc., IL, and USA). The insulin sensitivity index (ISI) was calculated by the values of fasting blood glucose (FBG) and fasting blood insulin (FBI). ISI = 1/(FBG×FBI) 1000 [21]. […] After evaporation of the chloroform under nitrogen, lipid samples were resuspended in isopropyl alcohol, and TG and TC content was determined by enzymatic assay. […] Frozen liver samples were used to perform hepatic lipid specific staining with Oil Red O staining.

[4] = system: Kunming mice; conditions: stated in Introduction, no method given; cited from earlier work
[5] = stated in Introduction, no method given; cited from earlier work

Q: With `COc1ccc(/C=C/c2cc(OC)cc(OCCCC(C)(C)C(=O)O)c2)cc1` [ZBH, (E)-5-(3-methoxy-5-(4-methoxystyryl)phenoxy) -2,2-dimethylpentanoic acid] as the compound, how does the Emax [1] read?
A: The Emax was 136%.

Q: And the adiponectin expression [2]?
A: The adiponectin expression was “dramatically up-regulate”.

Q: And the Kidney weight ([3]; 6.25 mg/kg, 5 weeks)?
A: The Kidney weight was 1.01 ± 0.08 g.

Q: And the Liver weight ([3]; 6.25 mg/kg, 5 weeks)?
A: The Liver weight was 7.78 ± 0.23 g.

Q: What about the “Retroperitoneal WAT” value ([3]; 6.25 mg/kg, 5 weeks) of the same compound?
A: Its value is 13.93 ± 0.82 g.

Q: What about the “Subcutaneous WAT” value ([3]; 6.25 mg/kg, 5 weeks) of the same compound?
A: The value was 7.28 ± 0.32 g.

Q: And the iBAT ([3]; 6.25 mg/kg, 5 weeks)?
A: Its iBAT is 0.23 ± 0.01 g.

Q: What about the Kidney weight ([3]; 12.5 mg/kg, 5 weeks) of the same compound?
A: The Kidney weight was 0.95 ± 0.09 g.

Q: What about the Liver weight ([3]; 12.5 mg/kg, 5 weeks) of the same compound?
A: The Liver weight was 7.77 ± 0.31 g.

Q: And the “Retroperitoneal WAT” value ([3]; 12.5 mg/kg, 5 weeks)?
A: Its value is 12.63 ± 0.66 g.

Q: What about the “Subcutaneous WAT” value ([3]; 12.5 mg/kg, 5 weeks) of the same compound?
A: Its value is 6.53 ± 0.42 g.

Q: And the iBAT ([3]; 12.5 mg/kg, 5 weeks)?
A: The iBAT was 0.21 ± 0.01 g.

Q: And the “maximum decrease in serum insulin levels” value ([3]; 25 mg kg^−1, 5 weeks)?
A: The value was 84%.

Q: What about the “serum FFA” value ([3]; 25 mg kg^−1, after one-week treatment until the end) of the same compound?
A: The value was “lowered remarkably”.

Q: And the Kidney weight ([3]; 25 mg/kg, 5 weeks)?
A: The Kidney weight was 0.94 ± 0.05 g.

Q: What about the Liver weight ([3]; 25 mg/kg, 5 weeks) of the same compound?
A: The Liver weight was 8.52 ± 0.45 g.

Q: And the “Retroperitoneal WAT” value ([3]; 25 mg/kg, 5 weeks)?
A: The value was 10.43 ± 0.39 g.

Q: What about the “Subcutaneous WAT” value ([3]; 25 mg/kg, 5 weeks) of the same compound?
A: Its value is 5.19 ± 0.12 g.

Q: What about the iBAT ([3]; 25 mg/kg, 5 weeks) of the same compound?
A: Its iBAT is 0.19 ± 0.01 g.

Q: And the “hepatic TG contents / hepatic steatosis” value ([3]; 5 weeks, Figure 7)?
A: The value was “greatly lowered”.

Q: And the “serum GOT, GPT, CK and creatinine levels” value ([3]; 5 weeks, Figure S1)?
A: The value was “not altered”.

Q: What about the “increase of the weight of the liver” value ([3]; 6.25-25 mg/kg, after 5 weeks, vs MC) of the same compound?
A: The value was 7%∼17.

Q: What about the “serum TG, TC and LDLc” value ([3]; 12.5 or 25 mg kg^−1) of the same compound?
A: Its value is “time and dose-dependent decrease”.

Q: And the “impact on food intake” value ([3]; Figure 5B)?
A: Its value is “negligible”.

Q: And the body weight gain ([3]; ZBH 25 mg/kg, bezafibrate 50 mg/kg, Figure 5A)?
A: Its body weight gain is “gained less weight”.

Q: What about the “increase in relative liver weight” value ([3]; highest dose, relative to MC) of the same compound?
A: Its value is 17%.

Q: And the “oral LD50” value [4]?
A: Its value is over 1200 mg/kg.

Q: And the oral bioavailability [5]?
A: The oral bioavailability was 67%.
